Test [1] concerns wild-type Arabidopsis thaliana. As to the kind of experiment: m-Tyr resistance: root growth on MS medium with m-Tyr, wild type. The class given is in vivo. The following applies: wild type plants, 20 μM m-Tyr in growth media, 7 days. As for the experimental part: (§1) Root growth of Wt (wild type), Cyt (transgenic plant containing cytosol localized bacterial PheRS) and Dual (transgenic plant containing plastids localized bacterial PheRS). Upper panels: samples grown on media containing 20 μM m-Tyrosine. Bottom panels: non-treated samples.
(§2) To assess effects of m-Tyr on Arabidopsis root growth, […] of m-Try was added to MS medium. Arabidopsis seeds were sterilized by shaking in 30% bleach. 0.3% Triton X-100 for 10 min, followed by three rinses with sterile distilled water. Petri dishes with seeds on agar medium were cold-stratified for 72 h at 4° C., and were subsequently placed vertically in green-house at 23° C., under 16:8 h light/dark cycle. After 7 days of growth, the root length of the plant was analyzed.
(§3) The bacterial PheRS genes described in the “Material and Methods” section hereinabove were expressed under the control of the constitutive 35S CaMV promoter. A transit peptide was appended to N-terminus of EcPheRS-α and EcPheRS-β subunits of the bacterial enzyme in order to direct them into the mitochondria and chloroplast of Arabidopsis thaliana. The second constructs pair including PheRS-α and PheRS-β lacked the transit peptides. […] Several independent transgenic lines were obtained, and their resistance to m-Tyr was analyzed. […]

The subject of test [2] is mtp-PheRS Arabidopsis thaliana lines. As to the kind of experiment: m-Tyr resistance: root growth on MS medium with m-Tyr, mtp-PheRS line. The class given is in vivo. The following applies: lines containing mtp-PheRS, 20 μM m-Tyr in growth media, 7 days. As for the experimental part: as §1, §2, §3
Test [3] concerns cyt-PheRS Arabidopsis thaliana lines. Kind of test: m-Tyr resistance: root growth on MS medium with m-Tyr, cyt-PheRS line. The following applies: cyt-PheRS expressing line, 20 μM m-Tyr in growth media, 7 days. The class given is in vivo. The method, then: as §1, §2, §3
In test [4] the test system is Arabidopsis thaliana. The following applies: added to an agar medium; read-out: concentration that inhibits root growth by 50%; cited from earlier work.
Test [5] deals with Arabidopsis thaliana. The following applies: in vivo; cited from earlier work.
The target in a further test is T1, HsmtPheRS (Homo sapiens, UniProt O95363).
T1 sequence (O95363 1-451): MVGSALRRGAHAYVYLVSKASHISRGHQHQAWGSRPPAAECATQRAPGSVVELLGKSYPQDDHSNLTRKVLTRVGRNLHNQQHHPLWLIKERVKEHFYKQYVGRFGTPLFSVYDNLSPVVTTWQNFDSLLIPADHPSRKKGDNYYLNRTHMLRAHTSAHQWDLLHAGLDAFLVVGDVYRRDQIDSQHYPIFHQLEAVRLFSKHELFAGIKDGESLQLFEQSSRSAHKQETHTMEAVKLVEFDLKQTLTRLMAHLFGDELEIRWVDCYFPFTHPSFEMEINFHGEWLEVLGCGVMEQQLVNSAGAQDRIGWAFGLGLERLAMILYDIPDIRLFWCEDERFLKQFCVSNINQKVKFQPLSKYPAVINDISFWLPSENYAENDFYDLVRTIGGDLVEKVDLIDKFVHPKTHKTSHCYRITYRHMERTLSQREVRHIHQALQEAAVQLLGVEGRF
The following applies: mitochondrial enzyme, no editing domain; cited from earlier work.

In test [6] the target is bacterial PheRS (Thermus thermophilus, UniProt Q5SGX1+Q5SGX2). The following applies: FIG. 1; cited from earlier work.
For test [7], the system named is bacterial PheRS. The following applies: incubated with bacterial PheRS; cited from earlier work.

Sequence of bacterial PheRS (Thermus thermophilus, UniProt Q5SGX1+Q5SGX2) (Q5SGX1 whole entry): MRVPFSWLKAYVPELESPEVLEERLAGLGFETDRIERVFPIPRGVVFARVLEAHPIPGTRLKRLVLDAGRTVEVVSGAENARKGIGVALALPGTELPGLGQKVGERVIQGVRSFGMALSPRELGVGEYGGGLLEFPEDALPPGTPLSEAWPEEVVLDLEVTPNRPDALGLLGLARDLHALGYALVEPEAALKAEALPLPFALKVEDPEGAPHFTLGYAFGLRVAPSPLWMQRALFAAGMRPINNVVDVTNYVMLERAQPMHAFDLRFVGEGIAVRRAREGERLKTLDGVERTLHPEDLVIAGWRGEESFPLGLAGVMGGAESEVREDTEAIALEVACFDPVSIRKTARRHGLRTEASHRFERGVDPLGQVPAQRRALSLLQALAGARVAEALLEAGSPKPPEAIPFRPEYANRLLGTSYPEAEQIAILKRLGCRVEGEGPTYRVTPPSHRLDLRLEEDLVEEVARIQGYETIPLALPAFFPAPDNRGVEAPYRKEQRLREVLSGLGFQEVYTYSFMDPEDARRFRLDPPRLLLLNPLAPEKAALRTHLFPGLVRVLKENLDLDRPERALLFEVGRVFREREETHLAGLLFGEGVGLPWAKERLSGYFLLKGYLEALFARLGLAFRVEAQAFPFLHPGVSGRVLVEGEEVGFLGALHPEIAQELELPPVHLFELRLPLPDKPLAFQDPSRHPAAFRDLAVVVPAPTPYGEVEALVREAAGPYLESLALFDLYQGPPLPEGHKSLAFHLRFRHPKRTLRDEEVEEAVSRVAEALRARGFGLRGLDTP
Sequence of bacterial PheRS (Thermus thermophilus, UniProt Q5SGX1+Q5SGX2) (Q5SGX2 whole entry): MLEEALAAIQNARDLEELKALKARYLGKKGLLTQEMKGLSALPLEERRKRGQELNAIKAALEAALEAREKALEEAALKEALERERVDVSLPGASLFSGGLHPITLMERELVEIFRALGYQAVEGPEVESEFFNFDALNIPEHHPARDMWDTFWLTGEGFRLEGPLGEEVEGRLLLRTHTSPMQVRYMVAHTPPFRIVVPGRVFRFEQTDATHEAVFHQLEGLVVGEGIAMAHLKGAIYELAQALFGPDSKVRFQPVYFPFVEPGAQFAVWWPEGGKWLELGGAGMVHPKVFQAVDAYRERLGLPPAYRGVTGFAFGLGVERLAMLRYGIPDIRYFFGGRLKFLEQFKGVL

`N[C@@H](Cc1cccc(O)c1)C(=O)O` [m-Tyr, meta-tyrosine]: the root development result in test [1] is given as “didn't develop”; in test [2], “developed up to the half of the length of the non-treated plants”; in test [3] it was “less developed compared to the line containing mtp-PheRS”. Moreover, the IC50 in the test with Arabidopsis thaliana [4] was 2000 nM. Further, in the test with Arabidopsis thaliana [5], the “concentration that completely prevents seed germination” value is 50 µM. Moreover, the “synthesis of m-Tyr-tRNA^Phe” value at HsmtPheRS was “could stably synthesize m-Tyr-tRNA^Phe”. Further, at bacterial PheRS [6], the “mischarging of tRNA^Phe with m-Tyr” value is “no mischarging”. For the same compound, in the test on bacterial PheRS [7], the “deacylation of m-Tyr from preloaded m-Tyr-tRNA^Phe” value is given as “deacylated from the tRNA”.
